Data as given in publication PMC4225773 (Bioorganic & medicinal chemistry letters, 2014).
≈ marks a conversion by molar mass, not a printed value. Where two headings read alike, the source gives them in different places. Marks after values point to notes of the source that are not given here.

Assays:
[1] = system: Intra-macrophage Amastigote Stage of L. donovani
in vitro = conditions: human
[2] = system: promastigote stage of L. donovani; test: Alamar blue
HDAC6 = conditions: cited from earlier work; for IC50: read-out: HDAC6 IC50, NI = No Inhibition at maximum tested concentration of 10 µM (percentage inhibition < 20%); for HDAC6 % inhibition at 10 µM: given if the IC50 was above 10 µM
HDAC8 = conditions: read-out: HDAC8 IC50; NI = No Inhibition at maximum tested concentration of 10 µM (percentage inhibition < 20%); cited from earlier work
[3] = Cytotoxicity to uninfected THP1 macrophage cells; conditions: human
[4] = system: Intra-macrophage Amastigote Stage of L. donovani; test: Amastigote-macrophage assay; conditions: for Cytotoxic activity against intra-macrophage amastigote (in words): THP1 host cells, 3HP values in Table S1 (not available); for Potency enhancement, intra-macrophage amastigote relative to axenic amastigote: comparing Tables 1 and 2
[5] = system: axenic amastigote of L. donovani; test: Alamar blue; type: cell-based
[6] = L. donovani promastigote, maximum concentration tested 40 µg/mL
[7] = uninfected THP1 macrophage cells
[8] = L. donovani axenic amastigote, maximum tested concentration 40 µg/mL

Row | SMILES | IC50 (HDAC6) | IC50 (HDAC8) | IC50 [3, 7] | other results
1 | C[C@@H]1[C@H](O)[C@@H](C)/C=C/C=C/C=C/C=C/C=C/C=C/C=C/[C@H](O[C@@H]2O[C@H](C)[C@@H](O)[C@H](N)[C@@H]2O)C[C@@H]2O[C@](O)(C[C@@H](O)C[C@@H](O)[C@H](O)CC[C@@H](O)C[C@@H](O)CC(=O)O[C@H]1C)C[C@H](O)[C@H]2C(=O)O [Amphotericin B] |  |  |  | Cytotoxic activity against intra-macrophage amastigote (in words) [1]: potently cytotoxic; IC50 (in vitro): > 10 µg/mL; IC50 ([2]; Leishmania donovani, read-out: Promastigote IC50): 0.4 µg/mL (≈ 0.433 µM)
2 | Oc1cccnc1O [Compound 1a] | > 10000 nM | > 10000 nM |  | Cytotoxicity to promastigote stage (in words) [2, 6]: inactive
3 | Oc1ccc[nH]c1=S [Compound 1b] | 681 ± 110 nM | 3680 ± 1200 nM | > 10 µg/mL | Cytotoxicity to promastigote stage (in words) [2, 6]: weakly cytotoxic
4 | O=c1c(O)cccn1Cc1ccccc1 [Compound 2a] | > 10000 nM | > 10000 nM |  | 
5 | Oc1cccn(Cc2ccccc2)c1=S [Compound 2b] | 457 ± 27 nM | 1270 ± 200 nM | > 10 µg/mL | 
6 | O=c1c(O)cccn1Cc1ccc(-c2ccccc2)cc1 [Compound 3a] | > 10000 nM | > 10000 nM |  | Cytotoxic activity against intra-macrophage amastigote (in words) [4]: moderate to good cytotoxic activities
7 | Oc1cccn(Cc2ccc(-c3ccccc3)cc2)c1=S [Compound 3b] | 847 ± 188 nM | 4280 ± 1550 nM | > 10 µg/mL | Potency enhancement, intra-macrophage amastigote relative to axenic amastigote [4]: 5- to 25 fold
8 | N#Cc1ccc(-c2ccc(Cn3cccc(O)c3=O)cc2)cc1 [Compound 4a] | > 10000 nM | > 10000 nM |  | Cytotoxicity to axenic amastigote (in words) [5, 8]: about equipotent to both stages of L. donovani; Cytotoxic activity against intra-macrophage amastigote (in words) [4]: moderately active
9 | N#Cc1ccc(-c2ccc(Cn3cccc(O)c3=S)cc2)cc1 [Compound 4b] | 957 ± 159 nM | 2080 ± 459 nM | > 10 µg/mL | Potency enhancement, intra-macrophage amastigote relative to axenic amastigote [4]: 5- to 25 fold
10 | N#Cc1cccc(-c2ccc(Cn3cccc(O)c3=O)cc2)c1 [Compound 5a] | > 10000 nM | > 10000 nM |  | Cytotoxic activity against intra-macrophage amastigote (in words) [4]: moderate to good cytotoxic activities
11 | N#Cc1cccc(-c2ccc(Cn3cccc(O)c3=S)cc2)c1 [Compound 5b] |  | 1700 ± 717 nM | > 10 µg/mL | HDAC6 % inhibition at 10 µM (HDAC6): 44% ^†
12 | N#Cc1ccccc1-c1ccc(Cn2cccc(O)c2=O)cc1 [Compound 6a] | > 10000 nM | > 10000 nM |  | 
13 | N#Cc1ccccc1-c1ccc(Cn2cccc(O)c2=S)cc1 [Compound 6b] | 372 ± 35 nM | 1910 ± 771 nM | > 10 µg/mL | Cytotoxic activity against intra-macrophage amastigote (in words) [4]: inactive
14 | Cc1ccc(-c2ccc(Cn3cccc(O)c3=O)cc2)cc1 [Compound 7a] | > 10000 nM | > 10000 nM |  | 
15 | Cc1ccc(-c2ccc(Cn3cccc(O)c3=S)cc2)cc1 [Compound 7b] | 454 ± 42 nM | 800 ± 304 nM | > 10 µg/mL | 
16 | Cc1cccc(-c2ccc(Cn3cccc(O)c3=O)cc2)c1 [Compound 8a] | > 10000 nM | > 10000 nM |  | 

Row | SMILES | IC50 (HDAC6) | IC50 (HDAC8) | IC50 [3, 7] | other results
17 | Cc1cccc(-c2ccc(Cn3cccc(O)c3=S)cc2)c1 [Compound 8b] | 812 ± 286 nM | 2500 ± 1180 nM | > 10 µg/mL | Cytotoxic activity against intra-macrophage amastigote (in words) [4]: inactive
18 | Cc1ccccc1-c1ccc(Cn2cccc(O)c2=O)cc1 [Compound 9a] | > 10000 nM | > 10000 nM |  | 
19 | Cc1ccccc1-c1ccc(Cn2cccc(O)c2=S)cc1 [Compound 9b] | 306 ± 69 nM | 3100 ± 1650 nM | > 10 µg/mL | 
20 | CN(C)c1ccc(-c2ccc(Cn3cccc(O)c3=O)cc2)cc1 [Compound 10a] | > 10000 nM | > 10000 nM |  | Cytotoxicity to axenic amastigote (in words) [5, 8]: about equipotent to both stages of L. donovani
21 | CN(C)c1ccc(-c2ccc(Cn3cccc(O)c3=S)cc2)cc1 [Compound 10b] | > 10000 nM | 2860 ± 944 nM | > 10 µg/mL | Potency enhancement, intra-macrophage amastigote relative to axenic amastigote [4]: 5- to 25 fold
22 | CN(C)c1ccc(-c2ccc(Cn3cccc(O)c3=O)cc2)cn1 [Compound 11a] | > 10000 nM | > 10000 nM |  | 
23 | CN(C)c1ccc(-c2ccc(Cn3cccc(O)c3=S)cc2)cn1 [Compound 11b] | 2390 ± 458 nM | > 10000 nM | > 10 µg/mL | 
24 | O=c1c(O)cccn1Cc1cn(-c2ccccc2)nn1 [Compound 12a] | > 10000 nM | > 10000 nM |  | 
25 | Oc1cccn(Cc2cn(-c3ccccc3)nn2)c1=S [Compound 12b] |  | 1570 ± 1070 nM | > 10 µg/mL | HDAC6 % inhibition at 10 µM (HDAC6): 41% ^†
26 | CN(C)c1ccc(-n2cc(Cn3cccc(O)c3=O)nn2)cc1 [Compound 13a] | > 10000 nM | > 10000 nM |  | Cytotoxic activity against intra-macrophage amastigote (in words) [4]: moderate to good cytotoxic activities
27 | CN(C)c1ccc(-n2cc(Cn3cccc(O)c3=S)nn2)cc1 [Compound 13b] | 1020 ± 99 nM | 1870 ± 723 nM | > 10 µg/mL | 
28 | COc1ccc(Cn2ccc3ccc(C(=O)NO)cc32)cc1 [PCI-34051, reference compound] |  |  |  | IC50 [3]: > 10 µg/mL; Cytotoxic activity against intra-macrophage amastigote (in words) [4]: inactive; Cytotoxicity to promastigote stage (in words) [2, 6]: minimal effect
29 | N=C(N)c1ccc(OCCCCCOc2ccc(C(=N)N)cc2)cc1 [Pentamidine, pentamidine] |  |  |  | Cytotoxic activity against intra-macrophage amastigote (in words) [1]: potently cytotoxic; IC50 (in vitro): > 10 µg/mL
30 | O=C(CCCCCCC(=O)Nc1ccccc1)NO [SAHA, suberoylanilide hydroxamic acid, reference compound] |  |  |  | Cytotoxicity to axenic amastigote (in words) [5]: non-toxic; Cytotoxicity to promastigote stage (in words) [2]: minimal effect
31 | CN1CCc2c(c3ccccc3n2Cc2ccc(C(=O)NO)cc2)C1 [Tubastatin A, reference compound] |  |  | > 10 µg/mL | 
